According to patent US5589568A (priority 1994, dated 1996):
Like-named read-outs stand apart in the source and are kept apart here. Where a SMILES comes first, the peptide text is derived from it. Where no end group is shown, it is not given here. The star is where a group is joined. Dodecyl = CCCCCCCCCCCC*; X1 = CCCCCCCCCCCCCCCC*

Key:
Go = target: T1, Go (Bos taurus, UniProt P08239); assay: steady state GTPase activity of Go in phospholipid vesicles; type: biochemical, bovine; settings: for Turnover number Go 10 μg/ml: 10 μg/ml amine; for Turnover number Go 10 μg/ml / Turnover number Go 100 μg/ml / GTPase Go 10 μM / GTPase Go 100 μM: 15 min at 20° C.; for Turnover number Go 10 μg/ml / GTPase Go 10 μM / GTPase Go 100 μM: PE/PC/PS vesicles; for Turnover number Go 100 μg/ml: 100 μg/ml amine; for Go ef. (apparent efficacy, maximum turnover number of GTPase activity): Table VI, receptor-based peptides; for Goo ef. (apparent efficacy, maximum turnover number of GTPase activity): Table IV; for GTPase Go 10 μM: 10 μM peptide; for GTPase Go 100 μM: 100 μM peptide; for ability to activate Gi and Go (in words): both Gi and Go, gramicidin S and dynorphin at 10 μM; for stimulation of GTPase activity: at higher concentrations, G protein not named in the sentence (Gi and Go tested)
T1 construct: proteins were extracted from bovine cerebral cortical membranes; from tissue; host or cells: bovine brain (cerebral cortical membranes)

Gi = assay: steady state GTPase activity of Gi in phospholipid vesicles; type: biochemical, rabbit; settings: for Turnover number Gi 10 μg/ml: 10 μg/ml amine; for Turnover number Gi 10 μg/ml / Turnover number Gi 100 μg/ml / GTPase Gi 10 μM / GTPase Gi 100 μM: 30 min at 30° C.; for Turnover number Gi 100 μg/ml: 100 μg/ml amine; for GTPase Gi 10 μM: 10 μM peptide; for GTPase Gi 10 μM / GTPase Gi 100 μM: PE/PC/PS vesicles; for GTPase Gi 100 μM: 100 μM peptide;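 on all read-outs here: Steady-state GTP hydrolysis by Gi measured in a detergent-free buffer containing 1.1 mM MgSO4 plus the specified guanine nucleotide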
Description: G proteins were reconstituted into phospholipid vesicles composed of dioleoyl-PC/bovine brain PS/1-palmitoyl,2-oleoyl-PE (3:4:3) as reported previously by Higashijima et al., 1988, incorporated herein by reference.
The concentration of free Mg^2+ in assay medium that contains 5 mM EDTA and no added Mg^2+ is estimated to be 0.1-0.2 nM according to Brandt et al., 1988 and 1983.

Gs = Gs (Homo sapiens, UniProt P63092); assay: steady state GTPase activity of Gs; type: biochemical
Description: Methods for the assay of steady state GTP hydrolysis and GTPγS binding have been described previously by Higashijima, 1987, and Ferguson, 1986, and incorporated herein by reference. Unless noted otherwise, assays of steady state GTP hydrolysis and of the binding and dissociation of guanine nucleotides were carried out in the buffer described previously, but without detergent and with 1.1 mM MgSO4 and the nucleotide specified in the text. When necessary, the concentration of free Mg^2+ was adjusted using EDTA buffers as described previously by Higashijima, 1987, and incorporated herein by reference.
The data set forth in the following tables represent data generated by the inventors employing the steady state GTP hydrolysis, expressed as molar turnover numbers, are described herein under the "Assay" section of the Experimental Procedures in Example 1. The data has been classified according to the criteria outlined below and the effects of each peptide and modified variant on Go, Gi, and Gs have been tabulated. Table III below sets forth data generated for various mastoparan analogues designed by the inventors, in comparison with the various naturally-occurring mastoparans (e.g., MP, MP-A and MP-T). Table IV sets forth similar data generated for various receptor-based peptides designed by the inventors based on a consideration of various G-protein linked receptors.
Apparent affinity (af.) and apparent efficacy (ef.) were estimated by EC50 and maximum turnover number of GTPase activity.

[1] = Table VI, receptor-based peptides
[2] = Table VI, receptor-based peptides, read-out: Gi af. (apparent affinity, estimated by EC50 of GTPase activity)
[3] = Table IV, read-out: G1 af. (apparent affinity, estimated by EC50 of GTPase activity)

Gs, sequence (P63092 whole entry): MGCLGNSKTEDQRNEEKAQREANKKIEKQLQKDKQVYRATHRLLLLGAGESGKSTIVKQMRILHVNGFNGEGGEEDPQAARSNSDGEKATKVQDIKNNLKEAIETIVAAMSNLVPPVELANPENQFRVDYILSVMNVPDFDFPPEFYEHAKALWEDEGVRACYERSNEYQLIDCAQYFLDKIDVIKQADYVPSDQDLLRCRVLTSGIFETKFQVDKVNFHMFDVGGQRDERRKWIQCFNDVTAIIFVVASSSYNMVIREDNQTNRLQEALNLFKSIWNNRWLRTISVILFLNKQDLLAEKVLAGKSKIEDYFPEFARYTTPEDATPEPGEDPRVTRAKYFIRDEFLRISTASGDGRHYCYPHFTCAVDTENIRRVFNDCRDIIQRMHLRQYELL
T1 sequence (P08239 2-354 limits assumed): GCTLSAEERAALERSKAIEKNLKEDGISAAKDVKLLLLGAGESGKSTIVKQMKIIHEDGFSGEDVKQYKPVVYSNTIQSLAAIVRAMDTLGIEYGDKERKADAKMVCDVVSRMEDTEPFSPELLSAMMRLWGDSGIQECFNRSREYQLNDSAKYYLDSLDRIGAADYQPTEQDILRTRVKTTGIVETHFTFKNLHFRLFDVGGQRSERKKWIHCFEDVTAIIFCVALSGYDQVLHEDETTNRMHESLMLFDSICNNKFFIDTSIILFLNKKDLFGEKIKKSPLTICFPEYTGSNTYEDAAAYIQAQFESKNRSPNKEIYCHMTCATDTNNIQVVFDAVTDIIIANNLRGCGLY
T1 sequence (P62871 2-340 partner limits assumed): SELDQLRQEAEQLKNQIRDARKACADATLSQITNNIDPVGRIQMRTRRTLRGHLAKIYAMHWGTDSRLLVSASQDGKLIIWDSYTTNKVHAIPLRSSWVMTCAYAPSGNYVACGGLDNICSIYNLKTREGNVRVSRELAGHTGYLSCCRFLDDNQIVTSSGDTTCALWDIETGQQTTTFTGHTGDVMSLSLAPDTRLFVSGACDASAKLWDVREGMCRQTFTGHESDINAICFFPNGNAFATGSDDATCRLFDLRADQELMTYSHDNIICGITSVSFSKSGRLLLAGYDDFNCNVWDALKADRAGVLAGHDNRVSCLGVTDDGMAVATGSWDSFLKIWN
T1 sequence (P63212 2-68 partner limits assumed): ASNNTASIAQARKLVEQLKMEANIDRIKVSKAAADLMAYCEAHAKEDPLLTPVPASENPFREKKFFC

## CCCCCCCCCCCCN [C12 NH3 Cl, dodecylamine]
Go
  Turnover number Go 10 μg/ml: 0.18 min⁻¹
  Turnover number Go 100 μg/ml: 0.61 min⁻¹
Gi
  Turnover number Gi 10 μg/ml: 0.06 min⁻¹
  Turnover number Gi 100 μg/ml: 0.31 min⁻¹
Gi; Table III
  stimulation of Gi by amines (in words): stimulated Gi significantly

## CCCCCCCCCCCCSC[C@H](N)C(=O)N1CCC[C@H]1C(=O)N[C@@H](Cc1ccccc1)C(=O)N[C@@H](CCCNC(=N)N)C(=O)N[C@@H](Cc1ccc(O)cc1)C(=O)N[C@@H](CCC(N)=O)C(=O)N[C@@H](CO)C(=O)N[C@@H](CC(C)C)C(=O)N[C@@H](CCSC)C(=O)N[C@H](C(=O)N[C@@H](CCCNC(=N)N)C(=O)N[C@@H](C)C(=O)N[C@@H](CCCNC(=N)N)C(=O)N[C@@H](C)C(=O)N[C@@H](CCCCN)C(=O)N[C@H](C(=O)N[C@H](C(N)=O)[C@@H](C)CC)C(C)C)[C@@H](C)O [C12-ER39] (H-C(Dodecyl)PFRYQSLMTRARAKVI-NH2; N-terminus assumed)
Go
  Go ef. (apparent efficacy, maximum turnover number of GTPase activity): G (Good (G): 5-10 fold)
Gi; [1]
  Gi ef. (apparent efficacy, maximum turnover number of GTPase activity): G (Good (G): 5-10 fold)
Gi; [2]
  EC50: 3 to 10 µM
Gs; [1]
  Gs ef. (apparent efficacy, maximum turnover number of GTPase activity): F (Fair (F): 2-5 fold)

## CCCCCCCCCCCCCCCCSC[C@H](NC(=O)[C@H](CC(C)C)NC(=O)[C@H](C)NC(=O)[C@H](CCCCN)NC(=O)[C@H](C)NC(=O)[C@H](CC(C)C)NC(=O)[C@H](C)NC(=O)[C@H](C)NC(=O)[C@H](CC(C)C)NC(=O)[C@H](C)NC(=O)[C@H](CCCCN)NC(=O)[C@H](Cc1ccc(O)cc1)NC(=O)[C@H](CC(N)=O)NC(=O)[C@@H](N)[C@@H](C)CC)C(N)=O [C16-ER17] (H-INYKALAALAKALC(X1)-NH2; N-terminus assumed)
Go
  Goo ef. (apparent efficacy, maximum turnover number of GTPase activity): E (Excellent (E): 30-10 fold)
Gi; Table IV
  G1 ef. (apparent efficacy, maximum turnover number of GTPase activity): E (Excellent (E): 30-10 fold)
Gi; [3]
  EC50: < 3 µM
Gs; Table IV
  Gs ef. (apparent efficacy, maximum turnover number of GTPase activity): F (Fair (F): 2-5 fold)

## CCCCCCCCCCCCCCCCCC[N+](C)(C)C.[Cl-] [C18 Me3 NCl, reference compound]
Go
  Turnover number Go 10 μg/ml: 0.61 min⁻¹
  Turnover number Go 100 μg/ml: < 0.01 min⁻¹
Gi
  Turnover number Gi 10 μg/ml: 0.04 min⁻¹
  Turnover number Gi 100 μg/ml: < 0.01 min⁻¹

## CC[C@H](C)[C@H](NC(=O)[C@H](CCCNC(=N)N)NC(=O)[C@H](Cc1ccc(O)cc1)NC(=O)[C@H](CC(C)C)NC(=O)[C@H](CC(C)C)NC(=O)[C@H](CC(C)C)NC(=O)[C@@H](NC(=O)[C@H](CC(C)C)NC(=O)[C@@H](NC(=O)[C@H](CC(C)C)NC(=O)[C@H](CC(C)C)NC(=O)[C@@H](NC(=O)[C@H](C)NC(=O)[C@@H](NC(=O)[C@H](CC(C)C)NC(C)=O)[C@@H](C)O)C(C)C)[C@@H](C)O)[C@@H](C)O)C(=O)N[C@@H](CC(N)=O)C(=O)N[C@@H](CC(C)C)C(=O)N[C@@H](CCCCN)C(=O)N[C@@H](C)C(=O)N[C@@H](CC(C)C)C(=O)N[C@@H](C)C(=O)N[C@@H](C)C(=O)N[C@@H](CC(C)C)C(=O)N[C@@H](C)C(=O)N[C@@H](CCCCN)C(=O)N[C@@H](C)C(=O)N[C@@H](CC(C)C)C(=O)N[C@@H](CC(C)C)C(N)=O [ER26]
Go
  Goo ef. (apparent efficacy, maximum turnover number of GTPase activity): F (Fair (F): 2-5 fold)
Gi; Table IV
  G1 ef. (apparent efficacy, maximum turnover number of GTPase activity): G (Good (G): 5-10 fold)
Gi; [3]
  EC50: 3 to 10 µM
Gs; Table IV
  Gs ef. (apparent efficacy, maximum turnover number of GTPase activity): F (Fair (F): 2-5 fold)

## CC[C@H](C)[C@H](NC(=O)CN)C(=O)NCC(=O)N[C@@H](C)C(=O)N[C@H](C(=O)N[C@@H](CC(C)C)C(=O)N[C@@H](CCCCN)C(=O)N[C@H](C(=O)N[C@@H](CC(C)C)C(=O)N[C@H](C(=O)N[C@H](C(=O)NCC(=O)N[C@@H](CC(C)C)C(=O)N1CCC[C@H]1C(=O)N[C@@H](C)C(=O)N[C@@H](CC(C)C)C(=O)N[C@H](C(=O)N[C@@H](CO)C(=O)N[C@@H](Cc1c[nH]c2ccccc12)C(=O)N[C@H](C(=O)N[C@@H](CCCCN)C(=O)N[C@@H](CCCNC(=N)N)C(=O)N[C@@H](CCCCN)C(=O)N[C@@H](CCCNC(=N)N)C(=O)N[C@@H](CCC(N)=O)C(=O)N[C@@H](CCC(N)=O)C(N)=O)[C@@H](C)CC)[C@@H](C)CC)[C@@H](C)O)[C@@H](C)O)C(C)C)C(C)C [Melittin, reference compound]
Go
  GTPase Go 10 μM: 0.63 min⁻¹
  GTPase Go 100 μM: 0.56 min⁻¹
Go; GTPase
  ability to activate Gi and Go (in words): potency and efficacy roughly equivalent to that of mastoparan
Gi
  GTPase Gi 10 μM: 0,37 min^-1
  GTPase Gi 100 μM: 0.40 min⁻¹

## NC(=O)[C@@H]1CCCN1C(=O)[C@H](Cc1cnc[nH]1)NC(=O)[C@@H]1CCC(=O)N1 [TRH, thyrotropin releasing hormone, reference compound]
Go
  GTPase Go 100 μM: 0.06 min⁻¹
Gi
  GTPase Gi 100 μM: 0.03 min⁻¹

## Ac-WKKLLKLLKKLLKL-NH2 [CBP6, reference compound]
Go
  GTPase Go 10 μM: 0.76 min⁻¹
  GTPase Go 100 μM: 0.38 min⁻¹
Go; GTPase
  ability to activate Gi and Go (in words): quite active
Gi
  GTPase Gi 10 μM: 0.51 min⁻¹
  GTPase Gi 100 μM: 0.06 min⁻¹

## Angiotensin II (DRVYIHPF; Angiotensin-2; UniProt P01019 25-32, looked up) [reference compound]
Go
  GTPase Go 100 μM: 0.31 min⁻¹
  stimulation of GTPase activity: more than 3 fold
Gi
  GTPase Gi 100 μM: 0.23 min⁻¹

## CPFRYQSLNTRARAKVI-NH2 [ER39]
Go
  Go ef. (apparent efficacy, maximum turnover number of GTPase activity): F (Fair (F): 2-5 fold)
Gi; [1]
  Gi ef. (apparent efficacy, maximum turnover number of GTPase activity): P (Poor (P): less than 2 fold)
Gi; [2]
  EC50: > 100 µM
Gs; [1]
  Gs ef. (apparent efficacy, maximum turnover number of GTPase activity): F (Fair (F): 2-5 fold)

## Calcitonin [reference compound]
Go
  GTPase Go 100 μM: 0.09 min⁻¹
Gi
  GTPase Gi 100 μM: 0.01 min⁻¹

## Dynorphin [reference compound]
Go
  GTPase Go 10 μM: 0.13 min⁻¹
  GTPase Go 100 μM: 0.33 min⁻¹
Go; GTPase
  ability to activate Gi and Go (in words): somewhat stimulatory
Gi
  GTPase Gi 100 μM: 0.10 min⁻¹

## Gramicidin S [reference compound]
Go
  GTPase Go 10 μM: 0.17 min⁻¹
  GTPase Go 100 μM: 0.47 min⁻¹
Go; GTPase
  ability to activate Gi and Go (in words): somewhat stimulatory
Gi
  GTPase Gi 10 μM: 0.13 min⁻¹
  GTPase Gi 100 μM: 0.31 min⁻¹

## Melanostatin [reference compound]
Go
  GTPase Go 100 μM: 0.05 min⁻¹
Gi
  GTPase Gi 100 μM: 0.03 min⁻¹

## RPPGFSPFR [Bradykinin, reference compound]
Go
  GTPase Go 100 μM: 0.05 min⁻¹
Gi
  GTPase Gi 100 μM: 0.03 min⁻¹

## Substance P [reference compound]
Go
  GTPase Go 100 μM: 0.25 min⁻¹
Go; GTPase, Table II
  stimulation of Go: more than 4 fold
Gi
  GTPase Gi 100 μM: 0.09 min⁻¹
Gi; GTPase, Table II
  stimulation of Gi: more than 4 fold

## [D-Ala^2 ]Leu-enkephalin [DALE, reference compound]
Go
  GTPase Go 100 μM: 0.06 min⁻¹
Gi
  GTPase Gi 100 μM: 0.02 min⁻¹

## luteinizing hormone releasing hormone [LHRH, reference compound]
Go
  GTPase Go 100 μM: 0.04 min⁻¹
Gi
  GTPase Gi 100 μM: 0.03 min⁻¹

## α-Mating factor [reference compound]
Go
  GTPase Go 100 μM: 0.19 min⁻¹
  stimulation of GTPase activity: more than 3 fold
Gi
  GTPase Gi 100 μM: 0.05 min⁻¹
